Patent US7119256B2, “Gene encoding acetolactate synthase” (priority 2000, dated 2006)

Legend:
[1] = system: mutant ALS protein; assay: Herbicide sensitivity of ALS partially purified from the resistant mutant (acetoin colorimetric ALS activity); assay type: biochemical, rice (Kinmaze)
Experimental: First, 200 g or more of resistant mutant was prepared by a liquid culture method (no supplementation with bispyribac-sodium), the culture having a composition as shown in Table 1 but without Gelrite. Then, about 150 g of the resistant mutant was homogenized using Hiscotron in a volume of buffer-1 [100 mM potassium phosphate buffer (pH 7.5) containing 20% (v/v) glycerol, 0.5 mM thiamin pyrophosphate (TPP), 10 μM flavin adenine dinucleotide (FAD), 0.5 mM MgCl2, and a volume of polyvinyl polypyrrolidone one-tenth that of tissue volume] 3-fold greater than tissue volume. The homogenate was filtered through nylon gauze, and then centrifuged at 15,000×g for 20 min. Ammonium sulfate was added to the centrifuged supernatant to 50% saturation, and then allowed to stand in ice for approximately 1 hour. The mixture was again centrifuged at 15,000×g for 20 min, and then the precipitated fraction was dissolved in about 30 ml of buffer-2 [10 mM Tris hydrochloric acid buffer (pH 7.5) containing 20% (v/v) glycerol, 0.5 mM TPP and 0.5 mM MgCl2]. […]
Next, the protein concentration of the crude enzyme solution was measured by the Bradford method according to the manual of Bio-Rad Protein Assay. […]
ALS activity resulting from the mutant ALS protein contained in the eluted fractions apportioned into each test tube for apportion was measured as follows. A reaction solution to be used in a measurement reaction was prepared by mixing an eluted fraction to be measured with a solution comprising 20 mM sodium pyruvate, 0.5 mM TPP, 0.5 mM MgCl2, 10 μM FAD and 20 mM potassium phosphate buffer (pH 7.5). […] After the eluted fraction to be measured was added, the measurement reaction was performed at 30° C. for 40 to 60 min. […]
Then, to quantify acetoin contained in the reaction solution, 1 ml of 0.5% (w/v) creatine and 1 ml of 5% (w/v) α-naphthol dissolved in 2.5 N sodium hydroxide was added to the reaction solution, followed by incubation at 37° C. for 10 min. Acetoin was then quantified by color comparison of the absorbance (at 525 nm) of the reaction solution, thereby evaluating ALS activity. […]

[2] = biological target: T1, wild type ALS protein (Oryza sativa subsp. japonica, UniProt Q6K2E8); assay: Herbicide sensitivity of partially purified wild type ALS protein (acetoin colorimetric ALS activity); assay type: biochemical, rice (Kinmaze); design: the wild type ALS protein was separated and purified in the same manner and used for the experiment; from tissue; host or cells: wild type rice (Kinmaze) cultured cells, liquid culture; ammonium sulfate, Sephadex G-25, HiTrap Q
T1 sequence (Q6K2E8 44-644): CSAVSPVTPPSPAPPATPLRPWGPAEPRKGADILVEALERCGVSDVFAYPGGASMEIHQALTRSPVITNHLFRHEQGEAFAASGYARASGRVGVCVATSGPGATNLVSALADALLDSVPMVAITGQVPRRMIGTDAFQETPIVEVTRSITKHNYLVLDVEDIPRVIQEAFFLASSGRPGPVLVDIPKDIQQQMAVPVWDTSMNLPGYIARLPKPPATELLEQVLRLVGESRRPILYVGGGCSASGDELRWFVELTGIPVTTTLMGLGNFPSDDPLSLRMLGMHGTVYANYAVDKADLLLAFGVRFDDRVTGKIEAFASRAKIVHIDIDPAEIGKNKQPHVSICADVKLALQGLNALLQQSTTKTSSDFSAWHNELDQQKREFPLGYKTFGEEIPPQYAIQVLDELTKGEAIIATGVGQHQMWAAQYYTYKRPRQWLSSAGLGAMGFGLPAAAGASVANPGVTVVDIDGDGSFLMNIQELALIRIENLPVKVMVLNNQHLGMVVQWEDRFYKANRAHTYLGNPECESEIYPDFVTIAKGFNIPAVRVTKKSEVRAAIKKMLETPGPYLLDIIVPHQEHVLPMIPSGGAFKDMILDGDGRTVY

[3] = biological target: T2, S627I mutant ALS (Oryza sativa subsp. japonica, UniProt Q6K2E8, S627I); assay: Herbicide sensitivity of crude ALS with S627I mutation only, 1 mM valine; assay type: biochemical, rice; settings: crude enzyme
T2 construct: one type of cDNA containing a full length ALS gene could be obtained from a cDNA library derived from the wild type; made in house; host or cells: E. coli JM 109, pGEX-2T backbone; crude enzyme solution
T2 sequence (Q6K2E8 44-644 S627I): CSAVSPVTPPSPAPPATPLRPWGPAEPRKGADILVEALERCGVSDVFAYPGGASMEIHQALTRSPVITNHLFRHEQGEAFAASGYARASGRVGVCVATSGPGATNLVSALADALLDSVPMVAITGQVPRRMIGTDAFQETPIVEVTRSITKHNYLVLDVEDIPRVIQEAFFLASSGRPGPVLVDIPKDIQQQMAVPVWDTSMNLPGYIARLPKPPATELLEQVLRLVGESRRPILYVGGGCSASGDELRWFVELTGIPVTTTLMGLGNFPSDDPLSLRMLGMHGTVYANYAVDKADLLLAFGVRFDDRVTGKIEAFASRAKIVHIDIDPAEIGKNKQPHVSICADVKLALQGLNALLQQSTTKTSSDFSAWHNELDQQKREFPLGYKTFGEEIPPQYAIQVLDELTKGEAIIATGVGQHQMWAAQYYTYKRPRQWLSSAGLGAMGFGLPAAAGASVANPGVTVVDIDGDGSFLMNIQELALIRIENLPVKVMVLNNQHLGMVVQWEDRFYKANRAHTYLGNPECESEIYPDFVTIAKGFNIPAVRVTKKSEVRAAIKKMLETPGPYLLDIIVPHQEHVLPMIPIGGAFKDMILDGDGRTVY
Experimental: A plasmid having W548L mutant ALS gene or a plasmid having S627I mutant ALS gene was transformed into E. coli strain JM 109. The colonies obtained from transformation were subjected to liquid culture, expression of GST induction protein was induced in the same manner as in Examples 4 and 5, a crude enzyme solution was prepared, and then herbicide sensitivity of ALS was examined in the presence of 1 mM valine.

[4] = system: wild type (Kinmaze) culture cells; assay: Growth of wild type rice (Kinmaze) culture cells in liquid medium with herbicide (relative wet weight); assay type: cell-based, Oryza sativa var. Kinmaze
Experimental: Approximately 1.5 g (wet weight) of the resistant mutant was transplanted in 200 ml of a Erlenmeyer flask supplemented with 50 ml of a MS-2,4-D liquid medium and bispyribac-sodium at an appropriate concentration, followed by culturing at approximately 27° C. for an appropriate period. The wet weight of the callus was measured periodically. The relative amount of increase was determined based on the wet weight of the transplanted resistant mutant. In addition, the experiment was performed three times with different bispyribac-sodium concentrations, and the standard error was calculated. […] As a control, a similar experiment was conducted using the wild type (Kinmaze).
The growth rates of the wild type and the resistant mutant were measured as described above except for the use of chlorsulfuron instead of bispyribac-sodium.

| Structure (SMILES) | RS ratio Resistant mutant: I50 (resistant mutant)/I50 (wild type) [1] | IC50 [2] | resistance imparted by S627I mutation alone [3] | growth of the wild type (relative weight on day 8) ([4]; 1 nM bispyribac-sodium) | growth of the wild type (relative weight on day 8) ([4]; 10 nM or more bispyribac-sodium) | growth of the wild type (relative weight on day 9) ([4]; 1 nM chlorsulfuron) |
| --- | --- | --- | --- | --- | --- | --- |
| COc1cc(OC)nc(Oc2cccc(Oc3nc(OC)cc(OC)n3)c2C(=O)[O-])n1.[Na+] [Bispyribac-sodium, bispyribac-sodium] | 74.8 | 5.63 nM | imparted resistance | not inhibited | inhibited |  |
| COc1nc(C)nc(NC(=O)NS(=O)(=O)c2ccccc2Cl)n1 [Chlorsulfuron, chlorsulfuron] | 5.36 | 17.3 nM | imparted no obvious resistance |  |  | inhibited |
